Q: Which melting point does the source give for `CC(C)N(C)S(=O)(=O)c1cccc(C(=O)O)c1` here?
A: The melting point was 168 to 170 °C.

Q: Which melting point does the source give for `O=C(NC(C(=O)O)c1ccccc1)c1cccs1` (stereo unspecified) here?
A: Its melting point is 185 to 187 °C.

Q: Which melting point does the source give for `O=C(O)c1cc(S(=O)(=O)N2CCOCC2)ccc1O` here?
A: Its melting point is 234 to 236 °C.

Q: Which melting point does the source give for `CCNC(=O)Nc1cccc([N+](=O)[O-])c1` here?
A: The melting point was 141 to 143 °C.

Q: For `O=C(O)CNC(=O)c1ccc(N2CCCC2=O)cc1`, which melting point is on record?
A: Its melting point is 190 to 200 °C.

Q: For `COC(=O)N1CCC(N)CC1`, which melting point is on record?
A: Its melting point is 40 to 42 °C.

Q: For `O=C(O)C(O)CCc1ccccc1` (stereo unspecified), which melting point is on record?
A: The melting point was 114 to 117 °C.

Q: With `CCCOc1ccc2[nH]cc(C=O)c2c1` as the compound, how does the melting point read?
A: Its melting point is 139 to 141 °C.

Q: With `ClCc1nnc(-c2ccc(Cl)cc2Cl)o1` as the compound, how does the melting point read?
A: Its melting point is 87 to 89 °C.

Q: For `Cc1cccc(F)c1C(=O)O`, which melting point is on record?
A: Its melting point is 114 to 116 °C.

Q: Which melting point does the source give for `CC(C)C(Br)C(=O)NC1CCS(=O)(=O)C1` (stereo unspecified) here?
A: The melting point was 139 to 141 °C.

Q: For `O=c1ccn2ncc(Br)c2[nH]1`, which melting point is on record?
A: Its melting point is 349 to 351 °C.

Q: Which melting point does the source give for `Sc1nnc(-c2sc3ccccc3c2Cl)o1` here?
A: The melting point was 231 to 233 °C.

Q: Which melting point does the source give for `COC(=O)c1cncc(C(=O)O)c1` here?
A: The melting point was 225 to 227 °C.

Q: With `Cc1cc(Br)cc([N+](=O)[O-])c1O` as the compound, how does the melting point read?
A: Its melting point is 89 to 91 °C.

Q: With `N#Cc1cnoc1N` as the compound, how does the melting point read?
A: The melting point was 143 to 145 °C.

Q: Which melting point does the source give for `CC(C(N)=NO)n1ccnc1` (stereo unspecified) here?
A: Its melting point is 151 to 153 °C.

Q: With `Nc1cc(C2CCOCC2)[nH]n1` as the compound, how does the melting point read?
A: Its melting point is 103 to 105 °C.

Q: For `N#Cc1cc(C(F)(F)F)ccc1S(=O)(=O)Cl`, which melting point is on record?
A: Its melting point is 87 to 89 °C.

Q: Which melting point does the source give for `CC(C)OCc1ccccc1CNC(=O)CCl` here?
A: The melting point was 40 to 42 °C.

Q: Which melting point does the source give for `O=C(O)Cc1csc(-c2cccs2)n1` here?
A: Its melting point is 97 to 99 °C.

Q: For `O=C(O)c1c(Cl)cccc1Oc1ccc(Cl)cc1`, which melting point is on record?
A: Its melting point is 109 to 111 °C.

Q: For `CCOC(=O)c1ccc(C(C)=O)cc1`, which melting point is on record?
A: Its melting point is 55 to 57 °C.

Q: For `OCc1nc2cc(Cl)ccc2s1`, which melting point is on record?
A: The melting point was 113 to 115 °C.

Q: For `Cc1cc(OCC(=O)O)ccc1C(C)C`, which melting point is on record?
A: Its melting point is 117 to 121 °C.

Q: For `O=C(CCl)NC(c1ccc(F)cc1)c1cccs1` (stereo unspecified), which melting point is on record?
A: The melting point was 124 to 126 °C.

Q: With `Cc1ccc(S(=O)(=O)NCCCC(=O)O)cc1` as the compound, how does the melting point read?
A: The melting point was 138 to 140 °C.

Q: With `CCOc1ccc(C(C)=O)cc1CN1CCOCC1` as the compound, how does the melting point read?
A: The melting point was 33 to 37 °C.

Q: With `CC1(C)CCCC(C)(C)N1O` as the compound, how does the melting point read?
A: The melting point was 36 to 38 °C.

Q: With `CC1Oc2c(cccc2C(=O)O)NC1=O` (stereo unspecified) as the compound, how does the melting point read?
A: The melting point was 281 to 283 °C.

Q: With `Cc1ccc(C(C)NC(=O)CCl)cc1C` (stereo unspecified) as the compound, how does the melting point read?
A: Its melting point is 196 to 198 °C.

Q: For `Cc1ccccc1C1CNC(=O)C1` (stereo unspecified), which melting point is on record?
A: Its melting point is 115 to 117 °C.

Q: Which melting point does the source give for `N#CCCOc1ccc(Br)cc1` here?
A: Its melting point is 76 to 78 °C.

Q: Which melting point does the source give for `Cc1nn(CCO)c(C(F)(F)Cl)c1C(=O)O` here?
A: Its melting point is 124 to 126 °C.

Q: Which melting point does the source give for `CC(=O)c1ccc(Cl)c(F)c1` here?
A: Its melting point is 39 to 41 °C.

Q: With `Cc1cc(C(=O)O)c(C)n1C(C)c1ccccc1` (stereo unspecified) as the compound, how does the melting point read?
A: Its melting point is 135 to 137 °C.

Q: For `O=C(O)CNC(=O)c1c[nH]c(=O)[nH]c1=O`, which melting point is on record?
A: The melting point was 301 to 303 °C.

Q: Which melting point does the source give for `CCOc1cc(/C=C(\C(=O)O)c2ccccc2)ccc1O` here?
A: Its melting point is 186 to 188 °C.

Q: With `Cc1cccc(NC2=NC(=O)CS2)c1` as the compound, how does the melting point read?
A: The melting point was 160 to 162 °C.

Q: For `CC(C)c1nc(C(=O)O)nn1-c1cccc(F)c1`, which melting point is on record?
A: Its melting point is 93 to 95 °C.

Q: For `O=c1c(C(O)(O)C(F)(F)F)coc2ccc(Cl)cc12`, which melting point is on record?
A: Its melting point is 114 to 116 °C.

Q: For `COc1ccc2[nH]cc(C3=CCNCC3)c2c1`, which melting point is on record?
A: Its melting point is 181 to 183 °C.

Q: For `O=C(O)CCc1nc(-c2cccs2)no1`, which melting point is on record?
A: The melting point was 108 to 110 °C.

Q: With `O=Cc1ccc(-c2nn(-c3ccccc3)cc2C=O)o1` as the compound, how does the melting point read?
A: Its melting point is 146 to 148 °C.

Q: Which melting point does the source give for `Cc1cccc2[nH]cc(CCN)c12` here?
A: Its melting point is 108 to 110 °C.

Q: Which melting point does the source give for `COc1ccc(NCC(=O)NN)cc1` here?
A: Its melting point is 94 to 98 °C.

Q: With `O=C(O)c1nc(OCC(F)(F)F)ccc1Cl` as the compound, how does the melting point read?
A: Its melting point is 85 to 87 °C.

Q: With `O=C1Nc2c(cccc2C(F)(F)F)C1=O` as the compound, how does the melting point read?
A: The melting point was 187 to 189 °C.

Q: Which melting point does the source give for `CNCc1c(Cl)ncnc1N(C)C` here?
A: Its melting point is 43 to 45 °C.

Q: For `CCNc1ncc(C(=O)O)s1`, which melting point is on record?
A: Its melting point is 187 to 189 °C.

Q: For `Cc1oc(-c2cnn(C)c2)nc1C(=O)O`, which melting point is on record?
A: Its melting point is 249 to 251 °C.

Q: With `Fc1ccc(CCNC2=NCCS2)cc1` as the compound, how does the melting point read?
A: The melting point was 106 to 108 °C.

Q: For `CC(C(=O)O)N1C(=O)NC2(CCCC2)C1=O` (stereo unspecified), which melting point is on record?
A: The melting point was 223 to 225 °C.

Q: With `COc1ccc(C(=O)O)cc1S(=O)(=O)NC1CCCC1` as the compound, how does the melting point read?
A: Its melting point is 216 to 218 °C.

Q: For `O=C(O)c1cccc(CN2C(=O)c3ccccc3C2=O)c1`, which melting point is on record?
A: The melting point was 202 to 212 °C.

Q: With `COc1cc(C(=O)O)ccc1OCC(=O)N1CCOCC1` as the compound, how does the melting point read?
A: Its melting point is 162 to 164 °C.
